Data as given in patent publication US20230183228A1, “SUBSTITUTED PYRAZOLYL COMPOUNDS AND METHODS OF USE THEREOF” (Chinook Therapeutics Canada, Inc., priority 2020, published 2023).
Marks after values point to notes of the source that are not given here.

Legend:
[1] = molecular target: T1, human recombinant C-terminal His-tagged LDHA (Homo sapiens, UniProt P00338); experiment: Human LDHA enzyme assay, human serum albumin (HSA) shift; type: biochemical; conditions: final concentration 10% HSA
T1 construct: His (C)
Method: (§1) Compounds were dissolved in DMSO and preincubated with human recombinant C-terminal His-tagged LDHA (0.070 μg/mL) for 10 min at room temperature in assay buffer consisting 50 mM Tris, pH 7.5 and 100 mM NaCl in black walled, clear bottom, non-binding 96-well plates. Equal volumes of substrate solution containing 100 μM of pyruvate and 100 μM of NADH in assay buffer was added to each well (final concentration 0.035 μg/mL enzyme, 50 μM pyruvate, 50 μM NADH, and 1% DMSO). For human serum albumin (HSA) shift assay, the compounds were preincubated with the enzyme in assay buffer containing 20% HSA before substrate addition (final concentration 10% HSA). The reaction was monitored at 340 nm on a plate reader (Molecular Devices) in kinetic mode for 15 min. The rate of the reaction was determined by plotting absorbance vs time.

[2] = Liver and plasma concentrations in c57/bl6 mice; type: in vivo; conditions: 20 mg/kg PO, 4 h
Method: [The procedure below names another organism; the source says it served here with some conditions changed.] (§2) Plasma and liver (target organ) concentrations of test compounds were determined in rats following a single per os (PO) administration of the test compounds. Male Sprague Dawley rats (6-8 weeks of age, Charles River Labs) were fasted overnight and a single dose of test compounds (10 mg/kg; as a suspension in 0.5% methyl cellulose) was administered by PO gavage. Rats were then sacrificed at 4 and 24 h after administration of the test compounds, and plasma and liver tissue samples were collected. Liver tissue samples were homogenized in 5 volumes of water:acetonitrile (50/50; v/v) mixture using a bead mill homogenizer. Plasma and liver homogenate samples were processed by protein precipitation using acetonitrile and the concentrations of the test compounds were determined by liquid chromatography-tandem mass spectrometry (SciEx triple quad 5500+ with Exion UPLC).
(§3) Liver and plasma exposures at the 4 h and 24 h timepoints for the various compounds are described in Table 5 below. Measured compound concentrations are as follows: ++++>10 μM; 10 μM≥+++>5 μM; 5 μM≥++>1 μM; 1 μM≥+>0.25 μM; and 0.25 μM≥−.

[3] = tested on: fresh primary mouse hepatocytes; experiment: Primary mouse hepatocyte assay (lactate production); type: cell-based
Method: Compounds were evaluated in an ex vivo assay consisting of fresh primary mouse hepatocytes. Hepatocytes were isolated from wild type mice (C57BL/6NCrl from Charles River Labs) using a two-step collagenase perfusion technique which involves a sequential perfusion of anesthetized mice with Hanks' balanced salt solution and collagenase. Following isolation, viable wild type hepatocytes (0.1 M cells/well) were incubated with test compound in presence of pyruvate and compound potency was evaluated by measuring the lactate produced by the cells using liquid chromatography coupled to mass spectrometry. Chromatographic separation was achieved on an XDB-C18 4.6×50 mm column (Agilent, Cat #927975-902) at a flow rate of 1 mL/min Mobile phase A consisted of 0.1% formic acid in water and mobile phase B consisted of acetonitrile. A gradient program was initiated starting at 5% B which was held for 1 minutes, then ramped from 5% to 95% B over 1 minute. After holding at 95% B for 1 minute, the program changed back to 5% B. The column was equilibrated with 5% B for […] before the next injection. The mass spectrometer was operated in negative mode with electrospray ionization. The following transition along with their collision energy (CE) were used: 89→43 (CE: −16 V) for lactate and 92→45 (CE: −16 V) for ^13C3-Lactate (internal standard).

[4] = molecular target: T1, human recombinant C-terminal His-tagged LDHA; experiment: Human LDHA enzyme assay; type: biochemical; conditions: 50 μM pyruvate, 50 μM NADH, no HSA
Method: as §1

[5] = Liver-targeted tissue distribution profile study in rats; type: in vivo, Sprague Dawley rats; conditions: rat, single 10 mg/kg PO
Method: as §2, §3

[6] = Run at 0.4M cells/well concentration of hepatocytes

IC50 [1]	Measured Compound Concentrations Liver - 4 h [2]	Measured Compound Concentrations Plasma - 4 h [2]	IC50 [4]	Measured Compound Concentrations Liver - 4 h [5]	Measured Compound Concentrations Liver - 24 h [5]	Measured Compound Concentrations Plasma - 4 h [5]	Measured Compound Concentrations Plasma - 24 h [5]	SMILES	IC50 [3, 6]	IC50 ([3]; 0.1 M cells/well)
0.001 to 0.01 µM	++++* (++++>10 μM)	−* (0.25 μM≥−)	< 0.001 µM	–	–	–	–	Cc1c(Cc2ccc(S(N)(=O)=O)c(F)c2)c(-c2ccc(F)cc2)nn1-c1nc(C(=O)O)cs1 [Example 3, 2-(4-(3-Fluoro-4-sulfamoylbenzyl)-3-(4-fluorophenyl)-5-methyl-1H-pyrazol-1-yl)thiazole-4-carboxylic acid]	0.25 to 1 µM	–
0.01 to 0.1 µM	++* (5 μM≥++>1 μM)	−* (0.25 μM≥−)	0.001 to 0.01 µM	–	–	–	–	CCc1c(Cc2ccc(S(N)(=O)=O)cc2)c(-c2ccc(F)cc2)nn1-c1nc(C(=O)O)cs1 [Example 4, 2-(5-ethyl-3-(4-fluorophenyl)-4-(4-sulfamoylbenzyl)-1H-pyrazol-1-yl)thiazole-4-carboxylic acid]	0.25 to 1 µM	–
0.001 to 0.01 µM	++* (5 μM≥++>1 μM)	−* (0.25 μM≥−)	< 0.001 µM	–	–	–	–	NS(=O)(=O)c1ccc(Cc2c(-c3ccc(F)cc3)nn(-c3nc(C(=O)O)cs3)c2CC2CC2)cc1 [Example 5, 2-(5-(cyclopropylmethyl)-3-(4-fluorophenyl)-4-(4-sulfamoylbenzyl)-1H-pyrazol-1-yl)thiazole-4-carboxylic acid]	0.25 to 1 µM	–
0.01 to 0.1 µM	++* (5 μM≥++>1 μM)	−* (0.25 μM≥−)	< 0.001 µM	–	–	–	–	NS(=O)(=O)c1ccc(Cc2c(-c3ccc(F)cc3)nn(-c3nc(C(=O)O)cs3)c2CCC2CC2)cc1 [Example 6, 2-(5-(2-cyclopropylethyl)-3-(4-fluorophenyl)-4-(4-sulfamoylbenzyl)-1H-pyrazol-1-yl)thiazole-4-carboxylic acid]	0.25 to 1 µM	–
0.001 to 0.01 µM	++* (5 μM≥++>1 μM)	−* (0.25 μM≥−)	< 0.001 µM	–	–	–	–	CC(C)Oc1cc(-c2nn(-c3nc(C(=O)O)cs3)c(CC3CC3)c2Cc2ccc(S(N)(=O)=O)c(F)c2)ccc1F [Example 7, 2-(5-(Cyclopropylmethyl)-3-(4-fluoro-3-isopropoxyphenyl)-4-(3-fluoro-4-sulfamoylbenzyl)-1H-pyrazol-1-yl)thiazole-4-carboxylic acid]	0.25 to 1 µM	–
0.001 to 0.01 µM	–	–	< 0.001 µM	+++ (10 μM≥+++>5 μM)	− (0.25 μM≥−)	− (0.25 μM≥−)	− (0.25 μM≥−)	NS(=O)(=O)c1ccc(Cc2c(-c3cccc(C(F)(F)F)c3)nn(-c3nc(C(=O)O)cs3)c2CC2CC2)cc1F [Example 18, 2-(5-(cyclopropylmethyl)-4-(3-fluoro-4-sulfamoylbenzyl)-3-(3-(trifluoromethyl)phenyl)-1H-pyrazol-1-yl)thiazole-4-carboxylic acid]	–	< 0.1 µM
0.001 to 0.01 µM	–	–	< 0.001 µM	+++ (10 μM≥+++>5 μM)	− (0.25 μM≥−)	− (0.25 μM≥−)	− (0.25 μM≥−)	NS(=O)(=O)c1ccc(Cc2c(-c3cccc(OC(F)(F)F)c3)nn(-c3nc(C(=O)O)cs3)c2CC2CC2)cc1F [Example 19, 2-(5-(cyclopropylmethyl)-4-(3-fluoro-4-sulfamoylbenzyl)-3-(3-(trifluoromethoxy)phenyl)-1H-pyrazol-1-yl)thiazole-4-carboxylic acid]	–	0.1 to 0.25 µM
0.001 to 0.01 µM	–	–	< 0.001 µM	++++ (++++>10 μM)	− (0.25 μM≥−)	− (0.25 μM≥−)	− (0.25 μM≥−)	NS(=O)(=O)c1ccc(Cc2c(-c3ccccc3)nn(-c3nc(C(=O)O)cs3)c2CC2CC2)cc1F [Example 20, 2-(5-(cyclopropylmethyl)-4-(3-fluoro-4-sulfamoylbenzyl)-3-phenyl-1H-pyrazol-1-yl)thiazole-4-carboxylic acid]	–	< 0.1 µM
0.01 to 0.1 µM	–	–	< 0.001 µM	++ (5 μM≥++>1 μM)	− (0.25 μM≥−)	− (0.25 μM≥−)	− (0.25 μM≥−)	NS(=O)(=O)c1ccc(Cc2c(-c3ccc(C(F)F)cc3)nn(-c3nc(C(=O)O)cs3)c2CC2CC2)cc1F [Example 21, 2-(5-(cyclopropylmethyl)-3-(4-(difluoromethyl)phenyl)-4-(3-fluoro-4-sulfamoylbenzyl)-1H-pyrazol-1-yl)thiazole-4-carboxylic acid]	–	< 0.1 µM
0.001 to 0.01 µM	–	–	< 0.001 µM	++ (5 μM≥++>1 μM)	− (0.25 μM≥−)	− (0.25 μM≥−)	− (0.25 μM≥−)	NS(=O)(=O)c1ccc(Cc2c(-c3cccc(OCC(F)(F)F)c3)nn(-c3nc(C(=O)O)cs3)c2CC2CC2)cc1F [Example 22, 2-(5-(cyclopropylmethyl)-4-(3-fluoro-4-sulfamoylbenzyl)-3-(3-(2,2,2-trifluoroethoxy)phenyl)-1H-pyrazol-1-yl)thiazole-4-carboxylic acid]	–	< 0.1 µM
0.01 to 0.1 µM	–	–	< 0.001 µM	+++ (10 μM≥+++>5 μM)	− (0.25 μM≥−)	− (0.25 μM≥−)	− (0.25 μM≥−)	NS(=O)(=O)c1ccc(Cc2c(-c3ccccc3F)nn(-c3nc(C(=O)O)cs3)c2CC2CC2)cc1F [Example 25]	–	0.1 to 0.25 µM
0.01 to 0.1 µM	–	–	< 0.001 µM	++ (5 μM≥++>1 μM)	− (0.25 μM≥−)	− (0.25 μM≥−)	− (0.25 μM≥−)	NS(=O)(=O)c1ccc(Cc2c(-c3cc(Cl)cc(Cl)c3)nn(-c3nc(C(=O)O)cs3)c2CC2CC2)cc1F [Example 26, 2-(5-(cyclopropylmethyl)-3-(3,5-dichlorophenyl)-4-(3-fluoro-4-sulfamoylbenzyl)-1H-pyrazol-1-yl)thiazole-4-carboxylic acid]	–	0.1 to 0.25 µM
0.001 to 0.01 µM	–	–	< 0.001 µM	+++ (10 μM≥+++>5 μM)	− (0.25 μM≥−)	− (0.25 μM≥−)	− (0.25 μM≥−)	NS(=O)(=O)c1ccc(Cc2c(-c3cc(F)c(F)c(F)c3)nn(-c3nc(C(=O)O)cs3)c2CC2CC2)cc1F [Example 28, 2-(5-(Cyclopropylmethyl)-4-(3-fluoro-4-sulfamoylbenzyl)-3-(3,4,5-trifluorophenyl)-1H-pyrazol-1-yl)thiazole-4-carboxylic acid]	–	< 0.1 µM
